From ChEMBL document CHEMBL4373693, “Virtual Screening Approach and Investigation of Structure-Activity Relationships To Discover Novel Bacterial Topoisomerase Inhibitors Targeting Gram-Positive and Gram-Negative Pathogens” (J Med Chem, 2019)
≈ marks a conversion by molar mass, not a printed value.

How the values were obtained:
[1] = target: DNA gyrase subunit A (Escherichia coli K-12, UniProt P0AES4); test: Inhibition of Escherichia coli ATCC 25922 DNA gyrase A assessed as reduction in enzyme-mediated supercoiling of relaxed pBR322 DNA by ethidium bromide staining based gel electrophoresis method
DNA gyrase subunit A (Escherichia coli K-12, UniProt P0AES4), sequence (P0AES4 whole entry): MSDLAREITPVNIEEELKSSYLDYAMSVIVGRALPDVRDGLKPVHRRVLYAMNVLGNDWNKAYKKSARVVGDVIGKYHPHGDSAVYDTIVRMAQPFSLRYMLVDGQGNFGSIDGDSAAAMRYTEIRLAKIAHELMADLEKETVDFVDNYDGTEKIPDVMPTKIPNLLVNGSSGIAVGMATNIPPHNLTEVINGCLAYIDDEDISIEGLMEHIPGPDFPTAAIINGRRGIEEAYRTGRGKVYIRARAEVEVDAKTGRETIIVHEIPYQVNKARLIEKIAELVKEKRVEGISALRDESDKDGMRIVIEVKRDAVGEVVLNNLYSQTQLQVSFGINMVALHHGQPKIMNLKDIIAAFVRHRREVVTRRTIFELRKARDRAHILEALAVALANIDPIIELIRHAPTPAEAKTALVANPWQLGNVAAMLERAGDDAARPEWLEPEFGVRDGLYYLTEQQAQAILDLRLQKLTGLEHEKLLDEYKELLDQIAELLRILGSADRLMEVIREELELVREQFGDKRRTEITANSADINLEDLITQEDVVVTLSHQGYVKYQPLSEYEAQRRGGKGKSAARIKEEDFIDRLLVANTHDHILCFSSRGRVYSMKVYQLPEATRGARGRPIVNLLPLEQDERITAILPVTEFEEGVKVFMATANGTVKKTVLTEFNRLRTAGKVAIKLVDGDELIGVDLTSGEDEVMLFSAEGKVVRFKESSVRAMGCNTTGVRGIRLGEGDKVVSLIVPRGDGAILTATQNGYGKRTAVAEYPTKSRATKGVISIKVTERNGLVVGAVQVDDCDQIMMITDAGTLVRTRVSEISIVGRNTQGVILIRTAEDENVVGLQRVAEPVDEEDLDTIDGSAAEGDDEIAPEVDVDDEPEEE

[2] = target: DNA gyrase subunit A (Staphylococcus aureus, UniProt P20831); test: Inhibition of Staphylococcus aureus ATCC 29213 DNA gyrase A assessed as reduction in enzyme-mediated supercoiling of relaxed pBR322 DNA by ethidium bromide staining based gel electrophoresis method
DNA gyrase subunit A (Staphylococcus aureus, UniProt P20831), sequence (P20831 whole entry): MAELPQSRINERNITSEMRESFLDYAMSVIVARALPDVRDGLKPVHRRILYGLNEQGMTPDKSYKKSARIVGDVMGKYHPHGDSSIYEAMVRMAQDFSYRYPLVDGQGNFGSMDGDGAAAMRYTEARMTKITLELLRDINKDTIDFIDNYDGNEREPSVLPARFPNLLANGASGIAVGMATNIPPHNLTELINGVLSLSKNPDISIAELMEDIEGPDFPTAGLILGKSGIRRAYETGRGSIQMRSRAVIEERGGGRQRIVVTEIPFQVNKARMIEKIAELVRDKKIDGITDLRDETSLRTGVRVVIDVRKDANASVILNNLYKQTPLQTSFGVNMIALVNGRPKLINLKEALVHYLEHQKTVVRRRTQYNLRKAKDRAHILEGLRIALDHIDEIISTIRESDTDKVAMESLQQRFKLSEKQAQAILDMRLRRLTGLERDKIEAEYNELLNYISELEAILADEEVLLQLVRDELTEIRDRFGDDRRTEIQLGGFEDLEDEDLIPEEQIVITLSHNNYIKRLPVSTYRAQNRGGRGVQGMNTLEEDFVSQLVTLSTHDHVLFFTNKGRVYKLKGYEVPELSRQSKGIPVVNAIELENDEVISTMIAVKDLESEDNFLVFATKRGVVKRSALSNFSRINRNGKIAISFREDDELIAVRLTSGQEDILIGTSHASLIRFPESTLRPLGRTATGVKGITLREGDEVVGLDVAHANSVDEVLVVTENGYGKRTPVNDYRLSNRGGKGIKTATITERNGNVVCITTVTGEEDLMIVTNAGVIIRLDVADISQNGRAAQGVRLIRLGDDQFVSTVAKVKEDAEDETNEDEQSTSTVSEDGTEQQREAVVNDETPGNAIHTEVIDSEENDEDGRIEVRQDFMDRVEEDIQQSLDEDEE

[3] = target: T1, DNA topoisomerase 4 subunit A (Escherichia coli K-12, UniProt P0AFI2); test: Inhibition of Escherichia coli ATCC 25922 DNA topoisomerase 4 subunit ParC assessed as reduction in decatenation of kinetoplast DNA incubated for 30 mins by ethidium bromide staining based gel electrophoresis method
T1 sequence (P0AFI2 whole entry): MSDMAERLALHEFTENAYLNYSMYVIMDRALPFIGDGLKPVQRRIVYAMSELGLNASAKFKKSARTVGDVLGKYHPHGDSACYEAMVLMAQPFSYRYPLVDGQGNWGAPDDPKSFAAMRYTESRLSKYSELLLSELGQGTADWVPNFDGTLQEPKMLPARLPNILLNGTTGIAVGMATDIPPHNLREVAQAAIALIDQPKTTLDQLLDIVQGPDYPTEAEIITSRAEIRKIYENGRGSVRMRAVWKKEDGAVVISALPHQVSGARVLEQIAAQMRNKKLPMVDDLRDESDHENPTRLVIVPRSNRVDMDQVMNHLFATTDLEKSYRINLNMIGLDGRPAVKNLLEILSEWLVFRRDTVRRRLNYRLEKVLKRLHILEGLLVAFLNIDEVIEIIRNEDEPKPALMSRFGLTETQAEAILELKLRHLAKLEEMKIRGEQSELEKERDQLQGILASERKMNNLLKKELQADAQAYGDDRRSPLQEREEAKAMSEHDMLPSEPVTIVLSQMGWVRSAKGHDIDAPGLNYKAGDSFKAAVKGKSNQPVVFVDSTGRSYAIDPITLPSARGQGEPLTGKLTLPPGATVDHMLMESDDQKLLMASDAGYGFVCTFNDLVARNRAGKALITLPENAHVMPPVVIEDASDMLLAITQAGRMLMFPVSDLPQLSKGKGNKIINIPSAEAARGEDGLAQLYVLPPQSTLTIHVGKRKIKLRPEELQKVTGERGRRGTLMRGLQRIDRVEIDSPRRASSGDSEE

[4] = target: DNA topoisomerase 4 subunit A (Staphylococcus aureus, UniProt P0C1U9); test: Inhibition of Staphylococcus aureus ATCC 29213 DNA topoisomerase 4 subunit ParC assessed as reduction in decatenation of kinetoplast DNA incubated for 30 mins by ethidium bromide staining based gel electrophoresis method
DNA topoisomerase 4 subunit A (Staphylococcus aureus, UniProt P0C1U9), sequence (P0C1U9 whole entry): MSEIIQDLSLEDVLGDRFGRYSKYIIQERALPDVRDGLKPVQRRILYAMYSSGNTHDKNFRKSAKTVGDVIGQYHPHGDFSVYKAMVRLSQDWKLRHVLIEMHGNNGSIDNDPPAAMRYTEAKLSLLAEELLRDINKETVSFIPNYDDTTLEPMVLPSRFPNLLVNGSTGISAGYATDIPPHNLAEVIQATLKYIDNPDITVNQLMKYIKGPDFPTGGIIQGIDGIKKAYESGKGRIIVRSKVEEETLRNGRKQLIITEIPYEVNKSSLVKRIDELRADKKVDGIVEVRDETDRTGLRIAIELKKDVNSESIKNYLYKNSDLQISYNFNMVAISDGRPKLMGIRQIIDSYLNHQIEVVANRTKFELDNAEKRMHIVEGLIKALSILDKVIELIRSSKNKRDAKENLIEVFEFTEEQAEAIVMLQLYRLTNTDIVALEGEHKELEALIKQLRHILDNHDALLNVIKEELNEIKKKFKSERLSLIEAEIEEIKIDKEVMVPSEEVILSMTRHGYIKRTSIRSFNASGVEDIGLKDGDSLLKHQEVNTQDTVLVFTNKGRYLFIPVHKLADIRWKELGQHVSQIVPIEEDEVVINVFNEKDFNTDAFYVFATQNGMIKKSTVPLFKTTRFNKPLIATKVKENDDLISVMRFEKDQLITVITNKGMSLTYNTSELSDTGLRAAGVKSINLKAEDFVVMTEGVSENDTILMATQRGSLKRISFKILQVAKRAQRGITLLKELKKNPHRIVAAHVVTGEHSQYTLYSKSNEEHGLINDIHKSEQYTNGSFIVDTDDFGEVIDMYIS

[5] = test system: Escherichia coli; test: Antibacterial activity against Escherichia coli ATCC 25922 after 16 to 24 hrs by broth microdilution method; type: functional
[6] = test system: Staphylococcus aureus; test: Antibacterial activity against Staphylococcus aureus ATCC 29213 after 16 to 24 hrs by broth microdilution method; type: functional
[7] = test system: Staphylococcus aureus; test: Antibacterial activity against Staphylococcus aureus BAA-1720 after 16 to 24 hrs by broth microdilution method; type: functional
[8] = test system: Pseudomonas aeruginosa; test: Antibacterial activity against Pseudomonas aeruginosa ATCC 27853 after 16 to 24 hrs by CLSI method; type: functional
[9] = test system: Escherichia coli; test: Antibacterial activity against Escherichia coli ATCC 25922 in presence of 50% human serum after 16 to 24 hrs by broth microdilution method; type: functional
[10] = test system: Staphylococcus aureus; test: Antibacterial activity against Staphylococcus aureus ATCC 29213 in presence of 50% human serum after 16 to 24 hrs by broth microdilution method; type: functional
[11] = test system: Staphylococcus aureus; test: Antibacterial activity against Staphylococcus aureus BAA-1720 in presence of 50% human serum after 16 to 24 hrs by broth microdilution method; type: functional
[12] = test system: Enterococcus faecium; test: Antibacterial activity against vancomycin resistant and teicoplanin sensitive Enterococcus faecium APV 00420 after 16 to 24 hrs by broth microdilution method; type: functional
[13] = test system: Enterococcus faecalis; test: Antibacterial activity against Enterococcus faecalis ATCC 29212 after 16 to 24 hrs by broth microdilution method; type: functional
[14] = test system: Haemophilus influenzae; test: Antibacterial activity against quinolone-sensitive Haemophilus influenzae H128 after 16 to 24 hrs by broth microdilution method; type: functional
[15] = test system: Haemophilus influenzae; test: Antibacterial activity against quinolone-sensitive Haemophilus influenzae ATCC 49766 after 16 to 24 hrs by broth microdilution method; type: functional
[16] = test system: Neisseria gonorrhoeae; test: Antibacterial activity against Neisseria gonorrhoeae ATCC 19424 after 16 to 24 hrs by broth microdilution method; type: functional
[17] = test system: Klebsiella pneumoniae; test: Antibacterial activity against quinolone-sensitive Klebsiella pneumoniae ATCC 700603 after 16 to 24 hrs by broth microdilution method; type: functional
[18] = test system: Escherichia coli; test: Selectivity ratio of MIC for Escherichia coli ATCC 25922 in presence of 50% human serum to MIC for Escherichia coli ATCC 25922; type: functional
[19] = test system: Staphylococcus aureus; test: Selectivity ratio of MIC for Staphylococcus aureus ATCC 29213 in presence of 50% human serum to MIC for Staphylococcus aureus ATCC 29213; type: functional
[20] = test system: Staphylococcus aureus; test: Selectivity ratio of MIC for Staphylococcus aureus BAA-1720 in presence of 50% human serum to MIC for Staphylococcus aureus BAA-1720; type: functional
[21] = test system: HepG2; test: Cytotoxicity against human HepG2 cells after 48 hrs by Alamar blue staining-based fluorometric analysis; type: cell-based; details: HepG2, 48 h
[22] = test system: HEK293; test: Cytotoxicity against human HEK293 cells after 48 hrs by Alamar blue staining-based fluorometric analysis; type: cell-based; details: HEK293, 48 h
[23] = test system: HT-29; test: Cytotoxicity against human HT-29 cells after 24 hrs by resazurin dye based CellTiter-Blue assay; type: cell-based; details: HT-29, 24 h
[24] = Selectivity ratio, ratio of IC50 for human HepG2 cells to MIC for Escherichia coli ATCC 25922; type: toxicity; details: read-out: Selectivity Index
[25] = Cytotoxicity against human HCE2 cells incubated for 2 hrs by MTT assay; type: cell-based
[26] = Selectivity ratio, ratio of IC50 for human HepG2 cells to MIC for Staphylococcus aureus ATCC 29213; type: toxicity; details: read-out: Selectivity Index
[27] = Selectivity ratio, ratio of IC50 for human HEK293 cells to MIC for Escherichia coli ATCC 25922; type: toxicity; details: read-out: Selectivity Index
[28] = Selectivity ratio, ratio of IC50 for human HEK293 cells to MIC for Staphylococcus aureus ATCC 29213; type: toxicity; details: read-out: Selectivity Index
[29] = test system: Enterococcus faecalis; test: Antibacterial activity against vancomycin-sensitive Enterococcus faecalis APV 00404 after 16 to 24 hrs by broth microdilution method; type: functional
[30] = test system: Enterococcus faecalis; test: Antibacterial activity against vancomycin-sensitive Enterococcus faecalis APV 00406 after 16 to 24 hrs by broth microdilution method; type: functional
[31] = test system: Enterococcus faecalis; test: Antibacterial activity against vancomycin and teicoplanin-resistant Enterococcus faecalis APV 00408 after 16 to 24 hrs by broth microdilution method; type: functional
[32] = test system: Enterococcus faecalis; test: Antibacterial activity against vancomycin and teicoplanin-resistant Enterococcus faecalis APV 00409 after 16 to 24 hrs by broth microdilution method; type: functional
[33] = test system: Enterococcus faecium; test: Antibacterial activity against vancomycin and teicoplanin-resistant Enterococcus faecium APV 00422 after 16 to 24 hrs by broth microdilution method; type: functional
[34] = test system: Enterococcus faecium; test: Antibacterial activity against vancomycin and teicoplanin-resistant Enterococcus faecium APV 00424 after 16 to 24 hrs by broth microdilution method; type: functional
[35] = test system: Enterococcus faecium; test: Antibacterial activity against vancomycin resistant and teicoplanin sensitive Enterococcus faecium APV 00553 after 16 to 24 hrs by broth microdilution method; type: functional
[36] = test system: Enterococcus faecalis; test: Antibacterial activity against vancomycin-sensitive Enterococcus faecalis APV 00623 after 16 to 24 hrs by broth microdilution method; type: functional
[37] = test system: Enterococcus faecium; test: Antibacterial activity against Enterococcus faecium APV 00626 after 16 to 24 hrs by broth microdilution method; type: functional
[38] = test system: Enterococcus faecium; test: Antibacterial activity against Enterococcus faecium APV 00627 after 16 to 24 hrs by broth microdilution method; type: functional
[39] = test system: HaCaT; test: Cytotoxicity against human HaCaT cells after 24 hrs by resazurin dye based CellTiter-Blue assay; type: cell-based
[40] = target: hERG (KCNH2) (Homo sapiens, UniProt Q12809); test: Inhibition of human ERG expressed in CHO cells at 10 uM after 5 mins by automated whole-cell patch clamp relative to control; type: cell-based; details: CHO cells that express human ERG
hERG (KCNH2), sequence (Q12809 whole entry): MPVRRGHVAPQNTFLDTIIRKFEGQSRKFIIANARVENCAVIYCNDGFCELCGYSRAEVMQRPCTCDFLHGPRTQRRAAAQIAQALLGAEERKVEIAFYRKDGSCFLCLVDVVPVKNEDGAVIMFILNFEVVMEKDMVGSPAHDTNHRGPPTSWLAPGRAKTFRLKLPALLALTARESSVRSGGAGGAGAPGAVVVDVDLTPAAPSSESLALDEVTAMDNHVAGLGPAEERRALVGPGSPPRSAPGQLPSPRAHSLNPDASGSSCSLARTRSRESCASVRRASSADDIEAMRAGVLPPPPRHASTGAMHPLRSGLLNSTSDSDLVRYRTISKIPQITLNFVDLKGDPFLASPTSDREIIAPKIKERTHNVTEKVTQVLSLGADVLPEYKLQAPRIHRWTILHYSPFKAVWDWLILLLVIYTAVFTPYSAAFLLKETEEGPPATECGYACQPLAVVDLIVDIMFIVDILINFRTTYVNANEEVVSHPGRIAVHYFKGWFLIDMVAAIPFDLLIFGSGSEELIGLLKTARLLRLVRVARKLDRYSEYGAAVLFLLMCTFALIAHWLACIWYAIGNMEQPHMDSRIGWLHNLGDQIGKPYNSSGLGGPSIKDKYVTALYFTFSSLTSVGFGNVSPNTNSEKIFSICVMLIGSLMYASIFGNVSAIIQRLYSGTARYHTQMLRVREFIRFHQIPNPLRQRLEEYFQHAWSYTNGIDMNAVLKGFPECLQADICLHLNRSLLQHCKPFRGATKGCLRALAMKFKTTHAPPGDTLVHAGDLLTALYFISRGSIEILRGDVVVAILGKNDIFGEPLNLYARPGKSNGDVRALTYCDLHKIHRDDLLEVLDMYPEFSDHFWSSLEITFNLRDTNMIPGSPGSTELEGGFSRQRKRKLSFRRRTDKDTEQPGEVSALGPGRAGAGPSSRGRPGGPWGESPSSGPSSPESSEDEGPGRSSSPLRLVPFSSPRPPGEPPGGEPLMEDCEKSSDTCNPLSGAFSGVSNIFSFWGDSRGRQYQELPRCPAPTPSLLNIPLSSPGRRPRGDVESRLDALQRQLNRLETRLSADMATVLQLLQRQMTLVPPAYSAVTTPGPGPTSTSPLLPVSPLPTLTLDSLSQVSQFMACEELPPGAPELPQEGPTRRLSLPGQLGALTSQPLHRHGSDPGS

| SMILES | IC50 [1] | IC50 [2] | IC50 [3] | IC50 [4] | MIC [5] | MIC [6] | MIC [7] | MIC [8] | MIC [9] | MIC [10] | MIC [11] | MIC [12] | MIC [13] | MIC [14] | MIC [15] | MIC [16] | MIC [17] | Ratio [18] | Ratio [19] | Ratio [20] | further results |
| --- | --- | --- | --- | --- | --- | --- | --- | --- | --- | --- | --- | --- | --- | --- | --- | --- | --- | --- | --- | --- | --- |
| COc1ccc2cc(F)nc(N3CCN(CC(O)CNc4cc(=O)oc5ccc(F)cc45)CC3)c2c1 (racemic) | 40 nM | < 100 nM | 100 nM | < 100 nM | 1 µM (≈ 0.497 µg/mL) | < 0.12 µM | 0.03 µg/mL (≈ 0.0604 µM) | 4 µg/mL (≈ 8.06 µM) | > 8 µg/mL | 8 µg/mL | 4 µg/mL | 0.12 µg/mL (≈ 0.242 µM) | 0.25 µg/mL (≈ 0.504 µM) | 0.5 µg/mL (≈ 1.01 µM) | 0.5 µg/mL (≈ 1.01 µM) | ≤ 0.06 µg/mL | 4 µg/mL (≈ 8.06 µM) | >=32 - 267 | >=32 - 267 | >=32 - 267 | IC50 [21]: 25000 nM; IC50 [22]: 66000 nM; IC50 [23]: > 100000 nM; selectivity ratio [24]: 25; IC50 [25]: > 150000 nM; selectivity ratio [26]: > 208; selectivity ratio [27]: 66; selectivity ratio [28]: > 5500 |
| O=c1nc(NCC(O)CN2CCN(c3nc(F)cc4ccc(F)cc34)CC2)c2cc(F)ccc2o1 (racemic) | 100 nM | 20 nM | 100 nM | 40 nM | 1.02 µM (≈ 0.495 µg/mL) | < 0.12 µM | 0.03 µg/mL (≈ 0.0618 µM) | 2 µg/mL (≈ 4.12 µM) | > 8 µg/mL | 4 µg/mL | 4 µg/mL | 0.25 µg/mL (≈ 0.515 µM) | 0.12 µg/mL (≈ 0.247 µM) | 0.06 µg/mL (≈ 0.124 µM) | 0.12 µg/mL (≈ 0.247 µM) | ≤ 0.06 µg/mL | 1 µg/mL (≈ 2.06 µM) | >=32 - 267 | >=32 - 267 | >=32 - 267 | MIC [29]: 0.12 µg/mL (≈ 0.247 µM); MIC [30]: 0.06 µg/mL (≈ 0.124 µM); MIC [31]: 0.06 µg/mL (≈ 0.124 µM); MIC [32]: 0.06 µg/mL (≈ 0.124 µM); MIC [33]: 0.12 µg/mL (≈ 0.247 µM); MIC [34]: 0.06 µg/mL (≈ 0.124 µM); MIC [35]: 0.25 µg/mL (≈ 0.515 µM); MIC [36]: 0.12 µg/mL (≈ 0.247 µM); MIC [37]: 32 µg/mL (≈ 65.9 µM); MIC [38]: 0.5 µg/mL (≈ 1.03 µM); IC50 [21]: 31000 nM; IC50 [22]: 52000 nM; selectivity ratio [24]: 30; IC50 [39]: > 100000 nM; selectivity ratio [26]: > 258; selectivity ratio [27]: 51; selectivity ratio [28]: > 433; inhibition at 5 min, 10 µM [40]: 24% |
